The target in one series is T1, B1R (Homo sapiens, UniProt P46663).
T1 sequence (P46663 1-353): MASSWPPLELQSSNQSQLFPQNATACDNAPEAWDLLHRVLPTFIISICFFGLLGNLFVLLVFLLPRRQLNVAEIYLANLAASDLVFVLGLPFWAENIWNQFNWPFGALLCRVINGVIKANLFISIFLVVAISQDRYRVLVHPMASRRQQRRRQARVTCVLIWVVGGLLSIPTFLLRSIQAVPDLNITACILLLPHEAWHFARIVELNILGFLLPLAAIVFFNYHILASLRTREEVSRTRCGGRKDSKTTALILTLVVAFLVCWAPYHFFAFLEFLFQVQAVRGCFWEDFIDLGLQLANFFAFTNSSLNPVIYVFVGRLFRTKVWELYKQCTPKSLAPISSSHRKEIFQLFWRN
As to the kind of experiment: Competitive binding assay with 3H radioligand on CHO-K1 cell membranes over-expressing human B1R. Details: purchased Perkin Elmer Inc., Waltham, Mass; ES-091-M400UA; host or cells: CHO-K1 cells over-expressing human B1R (membrane preparation). The method, then: The ability of the peptide and small molecule B1R targeting compounds to bind to B1R was assessed in competitive binding assay as described below.
Preparation of Cell Membranes: Ready to use cell membranes (12.5 μg/μL) from CHO-K1 cells over-expressing human B1R were obtained from Perkin Elmer Inc., Waltham, Mass. (cat. no. ES-091-M400UA). Binding using cell membranes from HEK293T::GFP::hB1R (from Example 3) was also tested. In the latter case, the membranes were prepared as follows: 90% confluent cells grown in large flask, T225, were detached and pelleted in a 50 mL conical tube using centrifuge at 1,200 rpm for 5 minutes. Afterward, cells were re-suspended in 20-30 mL of cold 50 mM Tris-HCl pH 7.4. Ice cold cells were disrupted for 15 seconds at 15,000 rpm with a Polytron PT3100 (Kinematica AG, Lucerne, Switzerland). The solution was aliquoted and centrifuged at 4° C. at 17,000×g for 30 minutes. The supernatant was discarded, and then the pellet was dissolved in 1-2 mL of cold salt solution containing 50 mM Tris-HCl pH 7.4 and 100 mM NaCl and incubated for 1 hour on ice. The cell membranes were pelleted by centrifugation at 4° C. at 17,000×g for 30 minutes and resuspended in 200-600 μL of 50 mM Tris-HCl pH 7.4. The cell membrane extract was stored at −80° C. Protein concentration was determined by Bradford assay (cat. no. R1271, Fermentas, Thermo Fisher Scientific, Burlington, ON). 50 ug of cell membranes per well was used for the competitive binding assay. […] Radio-labelled control was H-3 labelled [Leu^9,des-Arg^10] kallidin obtained either from American Radiolabelled Chemicals Inc, St. Louis, Mo.
Competitive Binding Assays: Assays were performed using 96-well MultiScreenHTS with glass fiber filter and PVDF support obtained from Millipore Corp, Billerica, Mass. (cat. no. MSFB N6B, lot no. R8AN42424). Wells of the MultiScreen plate were pre-soaked with 0.5% of cold Poly(ethyleneimine) (PEI) (cat. no. P3143, Sigma-Aldrich, St. Louis, Mo.) for 30 minutes. Afterward, wells were washed once with 50 mM of Tris-HCl pH 7.4. Total volume per wells was 200 μL. A fixed concentration of the hot radioligand (1, 3, 5 or 12.5 nM depending on the radioligand; see Table 5) was incubated with progressively higher concentrations (10^−11 to 10^−4 M) of the non-radioactive competitor of interest in the presence of cell membranes (50 μg/well) and the assay buffer (50 mM Tris-HCl pH 7.4, 5 mM MgCl2). The MultiScreen plate was then incubated at 27° C. for 15 minutes with agitation at 300 rpm. The assay was stopped by suctioning the reaction solution through the bottom PVDF membrane filter and discarded. The membranes were washed 7× with 150 μL/well of cold 50 mM Tris-HCl pH 7.4. Radioactivity was counted using 1450 MicroBeta TriLux—Microplate Scintillation and Luminescence Counter (Perkin Elmer Inc., Shelton, Conn.).

The nature of another series: in vivo. Conditions: NODSCID IL2RKO, mouse, iv, total radioactivity. On the procedure: Tumour Implantation: Imaging and biodistribution experiments were performed using NODSCID IL2RKO mice. Each cage, equipped with enrichments, contained three or four mice. The mice were maintained and the experiments were conducted in accordance with the guidelines established by Canadian Council on Animal Care and approved by Animal Ethics Committee of the University of British Columbia. Mice were housed under pathogen-free conditions and kept on twelve hour light and twelve hour dark cycle in the Animal Research Centre, British Columbia Cancer Research Centre, Vancouver, Canada.
Mice were anesthetised briefly with 2.5% isoflurane in 2.0 L/min of oxygen during cell implantation. After wiping the skin surrounding the injection site with an alcohol prep pad, a 31-Gauge needle was used to inject 10^7 HEK293T::GFP and HEK293T::hB1R cells in matrigel (1:1) on the back of the mouse. Imaging was performed once the tumour lump was visible. Tumour size was measured by CT and calculated using the ellipsoid formula: V^3mm=width×length×thickness×0.524.
PET/CT Imaging: Each tumour-bearing mouse was injected with ˜3.7 MBq of Ga-68 labelled Peptide 3 through the tail vein. The mice were imaged using the BC Cancer Agency Inveon microPET/CT scanner that has a 1.3 mm spatial resolution and a high sensitivity. Briefly, a localization CT scan was first obtained using 3 overlapping positions to cover the entire mouse. This CT scan was used for attenuation and scatter correction after segmentation for reconstructing the PET images. A dynamic acquisition was then performed for 60 minutes, with the mouse under isoflurane sedation. The animals were kept warm by a monitoring system with an integrated heating pad and physiological acquisition system. At the end of the acquisition, the mice were euthanized, and major organs were collected, weighed, and counted to determine the % injected dose per gram of tissue (% ID/g). The images were reconstructed using OSEM/3DMAP iterative reconstruction, and representative images of Ga-68 labelled Peptide 3 at 1 h post-injection are shown in FIG. 4.

The test system of series [1] is HEK-293 and HEK-293/BKRB1 tumours. As to the kind of experiment: Biodistribution of Ga-68 Peptide 12 in tumour-bearing mice. Format: in vivo, mouse. Details: Biodistribution Spleen Average / Biodistribution Liver Average / Biodistribution Adrenal glands Average / Biodistribution Kidney Average / Biodistribution Muscle Average / Biodistribution Brain Average / Biodistribution Blood Average / Biodistribution Fat Average: unit not given here. Conditions: 1 h post-injection. From the text: Peptide 12 is an […] version of Peptide 3 that was developed by substituting the C-terminal Leu residue with a D-Phe residue.

Where [2] appears, read: Hot 12.5 nM BK-AG-ARC, CHO-K1 membranes, individual assays, read-out: Ki.
[3] abbreviates: average of individual competitive binding assays, read-out: Affinity Ki (nM) Average.

“And” between values parts separate entries of the source, which are not always exact repeats. Equal entries are not always repeated. Where two headings read alike, the source gives them in different places. Where a SMILES comes first, the peptide text is derived from it. [ ]: non-standard residue; d: D form. The star is where a group is joined. DOTA = O=C(O)CN1CCN(CC(=O)O)CCN(CC(=O)*)CCN(CC(=O)O)CC1; Hyp = O=C(O)[C@@H]1C[C@@H](O)CN1; Cha = N[C@@H](CC1CCCCC1)C(=O)O; PEG2 = NCCOCCOCCC(=O)O

One may read the Ki as a dissociation constant, usually derived from enzyme kinetics or from competition with a known ligand. Take `Cc1ccc(S(=O)(=O)N2c3ccccc3NC(=O)[C@H]2CC(=O)NCCc2ccc(NCCF)cc2)cc1` [Compound 6]: the Ki on B1R (setting [2]) and on B1R (setting [3]) was 1010 nM throughout.
For `Cc1ccc(S(=O)(=O)N2c3ccccc3NC(=O)[C@H]2CC(=O)Nc2ccc(N3CCN(CCF)CC3)cc2)cc1` [Compound 7], the inhibition constant Ki at B1R (setting [2]) is 113 nM and 39.5 nM and 260 nM; at B1R (Hot 12.5 nM BK-ANT-ARC, CHO-K1 membranes, individual assays, read-out: Ki) it was 20.7 nM; at B1R (setting [3]), 108 nM.
For the molecule `Cc1ccc(S(=O)(=O)N2c3ccccc3NC(=O)[C@H]2CC(=O)NCc2ccc(NCCF)cc2)cc1` [Compound 8], the Ki at B1R (setting [2]) and at B1R (setting [3]) was 6920 nM each time.
For the molecule `COc1cc(C)c(S(=O)(=O)N(C)CCOCC(=O)N2CCC(C3CCN(CCF)CC3)CC2)c(C)c1` [Compound 15], the Ki turned out to be 0.81 nM at B1R (Hot 4.5 nM BK-ANT-ARC, CHO-K1 membranes, individual assays, read-out: Ki) and 0.81 nM on B1R (setting [3]).
One may read the tissue uptake as the share of the injected amount in each gram of the tissue. As for `CC(C)C[C@H](NC(=O)[C@@H]1CCCN1C(=O)[C@H](CO)NC(=O)[C@H](CC1CCCCC1)NC(=O)CNC(=O)[C@@H]1C[C@@H](O)CN1C(=O)[C@@H]1CCCN1C(=O)[C@H](CCCNC(=N)N)NC(=O)[C@H](CCCCN)NC(=O)CCOCCOCCNC(=O)CN1CCN(CC(=O)O)CCN(CC(=O)O)CCN(CC(=O)O)CC1)C(=O)O` [Ga-68 Peptide 3, ^68Ga-DOTA-PEG2-Lys-Arg-Pro-Hyp-Gly-Cha-Ser-Pro-Leu, metal not drawn] ({DOTA-PEG2}-KRP[Hyp]G[Cha]SPL-OH), the tissue uptake at 1 h in “in vivo” (3.7 MBq, % ID/g Blood Average) amounted to 0.26 %ID/g; in “in vivo” (3.7 MBq, % ID/g Bone Average) it was 0.34 %ID/g; in “in vivo” (3.7 MBq, % ID/g Brain Average), 0.03 %ID/g; in the series “in vivo” (3.7 MBq, % ID/g Colon Average), 0.34 %ID/g; in the series “in vivo” (3.7 MBq, % ID/g Fat Average) it was 0.12 %ID/g; in the series “in vivo” (3.7 MBq, % ID/g Heart Average), 0.19 %ID/g. In addition, the tissue uptake at 1 h in “in vivo” (3.7 MBq, % ID/g LEFT Tumour (B1R) Average) is 1.32 %ID/g; in the series “in vivo” (3.7 MBq, % ID/g Left Kidney Average), 5.14 %ID/g; in “in vivo” (3.7 MBq, % ID/g Liver Average) it was 0.16 %ID/g; in the series “in vivo” (3.7 MBq, % ID/g Lungs Average) it was 0.43 %ID/g; in the series “in vivo” (3.7 MBq, % ID/g Muscle Average) it was 0.11 %ID/g; in “in vivo” (3.7 MBq, % ID/g Pancreas Average), 0.13 %ID/g. Moreover, the tissue uptake at 1 h worked out at 0.77 %ID/g in “in vivo” (3.7 MBq, % ID/g Plasma Average); 0.23 %ID/g in the series “in vivo” (3.7 MBq, % ID/g RIGHT Tumour (GFP) Average); 6.79 %ID/g in “in vivo” (3.7 MBq, % ID/g Right Kidney Average); 0.2 %ID/g in the series “in vivo” (3.7 MBq, % ID/g Small Intestine Average); 0.11 %ID/g in “in vivo” (3.7 MBq, % ID/g Spleen Average); 0.11 %ID/g in the series “in vivo” (3.7 MBq, % ID/g Stomach Average). Also, the tissue uptake at 1 h in the series “in vivo” (% ID/g Tail Average) was found to be 0.45 %ID/g.
For the molecule `N=C(N)NCCC[C@H](NC(=O)[C@H](CCCCN)NC(=O)CCCCCNC(=O)CN1CCN(CC(=O)O)CCN(CC(=O)O)CCN(CC(=O)O)CC1)C(=O)N1CCC[C@H]1C(=O)N1C[C@H](O)C[C@H]1C(=O)NCC(=O)N[C@@H](CC1CCCCC1)C(=O)N[C@@H](CO)C(=O)N1CCC[C@H]1C(=O)N[C@H](Cc1ccccc1)C(=O)O` [Ga-68 Peptide 12, ^68Ga-DOTA-Ahx-Lys-Arg-Pro-Hyp-Gly-Cha-Ser-Pro-(D-Phe), metal not drawn], in series [1] (Adrenal glands), the “Biodistribution Adrenal glands Average” value stood at 0.001. In addition, the “Biodistribution Blood Average” value in series [1] (Blood) is 0.039. This molecule displayed a Biodistribution Bone Average in series [1] (Bone) of 0.093 %ID/g. For the same molecule, the “Biodistribution Brain Average” value in series [1] (Brain) is listed as 0.009. Besides, the “Biodistribution Fat Average” value in series [1] (Fat) was found to be 0.039. In series [1] (Heart), this molecule had a Biodistribution Heart Average of 0.15 %ID/g. In series [1] (Kidney), the “Biodistribution Kidney Average” value is recorded as 6.436. Moreover, the Biodistribution Large intestine Average in series [1] (Large intestine) worked out at 0.149 %ID/g. This molecule also gave a Biodistribution Left tumour Average in series [1] (Left tumour) of 0.194 %ID/g. Besides, in series [1] (Liver), the “Biodistribution Liver Average” value is 0.129. The Biodistribution Lungs Average in series [1] (Lungs) came out at 0.8 %ID/g. Besides, the “Biodistribution Muscle Average” value in series [1] (Muscle) was 0.056. For the same molecule, in series [1] (Pancreas), the “Biodistribution Pancreas Average” value is given as 0.069. The molecule further displayed a Biodistribution Plasma Average in series [1] (Plasma) of 0.473 %ID/g. The “Biodistribution Right tumour Average” value in series [1] (Right tumour, in %ID/g) was 7.909. The molecule also registered a Biodistribution Seminal glands Average in series [1] (Seminal glands) of 0.23 %ID/g. In series [1] (Skin), this molecule came in with a Biodistribution Skin Average of 0.223 %ID/g. In addition, the Biodistribution Small intestine Average in series [1] (Small intestine) stood at 0.208 %ID/g. For the same molecule, the “Biodistribution Spleen Average” value in series [1] (Spleen) was determined as 0.127. In addition, in series [1] (Tail), the Biodistribution Tail Average worked out at 0.226 %ID/g. In series [1] (Testes), this molecule registered a Biodistribution Testes Average of 0.132 %ID/g.

The values above are taken from patent publication US10039846B2, “Compositions targeting bradykinin receptor B1 for medical imaging of cancer and other disorders” (BRITISH COLUMBIA CANCER AGENCY BRANCH, priority 2012, dated 2018).
